Assays:
[1] = biological target: T1, recombinant human ALK5 (TGF-βR1) protein (Homo sapiens, UniProt P36897); assay: Biochemical ALK5 (TGF-βR1) assay to measure pKi (LANCE Ultra ULight kinase assay); settings: apparent pKi from pIC50 by Cheng-Prusoff, read-out: ALK5 pKi (converted)
T1 construct: purchased Life Technologies PR9075A
T1 sequence (P36897 34-503): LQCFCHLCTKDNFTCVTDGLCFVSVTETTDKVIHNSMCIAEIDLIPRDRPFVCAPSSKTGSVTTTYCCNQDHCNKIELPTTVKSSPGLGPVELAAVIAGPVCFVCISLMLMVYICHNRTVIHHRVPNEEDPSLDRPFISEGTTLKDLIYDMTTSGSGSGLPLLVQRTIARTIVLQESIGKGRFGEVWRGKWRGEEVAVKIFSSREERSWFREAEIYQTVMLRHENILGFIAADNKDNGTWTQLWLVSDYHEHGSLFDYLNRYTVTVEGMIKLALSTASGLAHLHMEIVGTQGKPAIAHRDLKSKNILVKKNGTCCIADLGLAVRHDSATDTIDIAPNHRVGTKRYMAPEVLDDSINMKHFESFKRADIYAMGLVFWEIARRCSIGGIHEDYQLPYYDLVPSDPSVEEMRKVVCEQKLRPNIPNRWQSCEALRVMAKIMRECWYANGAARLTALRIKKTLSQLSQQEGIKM
Procedure, shortened: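 After a 60 min room-temperature preincubation of ALK5 with compound, phosphorylation proceeds 60 min at 37 °C on ATP addition (125 μM as 5× stock). Detection: Eu-labelled phospho-Thr1342 Topo IIα antibody in EDTA buffer, pH 7.0; emission 665 nm.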

[2] = test system: TGF-β-stimulated SMAD3 phosphorylation in BEAS-2B cells; assay: Cellular ALK5 potency assay, inhibition of TGF-β stimulated pSMAD3 formation in BEAS-2B cells; type: cell-based; settings: Homo sapiens; inhibition of TGF-β stimulated pSMAD3 formation, BEAS-2B cells; read-out: BEAS2B pIC50 (converted)
Procedure, shortened: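 SMAD3 phosphorylation was measured by AlphaLISA after 30 min TGF-β stimulation (10 ng/mL final) of BEAS-2B cells preincubated 1 h with compound at 37 °C. Results given as pIC50.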

| SMILES | Ki [1] | IC50 [2] |
| --- | --- | --- |
| Cc1cccc(-c2[nH]cnc2-c2ccc3ncc(N4CC[C@H](N)C4)cc3c2)n1 [Compound 208, (3S)-1-[6-[5-(6-methyl-2-pyridyl)-1H-imidazol-4-yl]-3-quinolyl]pyrrolidin-3-amine] | 0.0398 to 0.316 nM | < 20 nM |
| Cc1nc(-c2n[nH]cc2-c2ccc3ncc(N4CCCNCC4)cc3c2)ccc1F [Compound 209, 3-(1,4-diazepan-1-yl)-6-[3-(5-fluoro-6-methyl-2-pyridyl)-1H-pyrazol-4-yl]quinoline] | 0.0398 to 0.316 nM | 25.1 to 158 nM |
| Cc1cccc(-c2[nH]ncc2-c2ccc3ncc(C(=O)O[C@H]4CCNC4)cc3n2)n1 [Compound 210, [(3S)-pyrrolidin-3-yl]6-[5-(6-methyl-2-pyridyl)-1H-pyrazol-4-yl]-1,5-naphthyridine-3-carboxylate] | 0.398 to 3.16 nM | 25.1 to 158 nM |
| Cc1cccc(-c2[nH]ncc2-c2ccc3ncc(C(=O)OCC4CCNCC4)cc3n2)n1 [Compound 211, 4-piperidylmethyl 6-[5-(6-methyl-2-pyridyl)-1H-pyrazol-4-yl]-1,5-naphthyridine-3-carboxylate] | 0.0398 to 0.316 nM | 25.1 to 158 nM |
| Cc1cccc(-c2n[nH]cc2-c2ccc3ncc(-c4c(C)nn5c4NCCC5)cc3n2)n1 [Compound 212, 2-[3-(6-methyl-2-pyridyl)-1H-pyrazol-4-yl]-7-(2-methyl-4,5,6,7-tetrahydropyrazolo[1,5-a]pyrimidin-3-yl)-1,5-naphthyridine] | 0.398 to 3.16 nM | 25.1 to 158 nM |
| Cc1cccc(-c2[nH]cnc2-c2ccc3ncc(N4CCC(C(=O)O)CC4)cc3c2)n1 [Compound 213, 1-(6-(5-(6-methylpyridin-2-yl)-1H-imidazol-4-yl)quinolin-3-yl)piperidine-4-carboxylic acid] | 0.0398 to 0.316 nM | 200 to 1260 nM |
| CNCc1cncc(-c2cnc3ccc(-c4c[nH]nc4-c4cccc(C)n4)nc3c2)c1 [Compound 214, N-methyl-1-[5-[6-[3-(6-methyl-2-pyridyl)-1H-pyrazol-4-yl]-1,5-naphthyridin-3-yl]-3-pyridyl]methanamine] | 0.0398 to 0.316 nM | 25.1 to 158 nM |
| Cc1cccc(-c2n[nH]cc2-c2ccc3ncc(-c4ccnnc4)cc3n2)n1 [Compound 215, 2-[3-(6-methyl-2-pyridyl)-1H-pyrazol-4-yl]-7-pyridazin-4-yl-1,5-naphthyridine] | < 0.0316 nM | < 20 nM |
| Cc1cccc(-c2nnn(Cc3ccccc3)c2-c2ccc3ncc(-c4cnn(C5CCCNC5)c4)cc3n2)n1 (stereo not drawn) [Compound 216, 2-(1-benzyl-4-(6-methylpyridin-2-yl)-1H-1,2,3-triazol-5-yl)-7-(1-(piperidin-3-yl)-1H-pyrazol-4-yl)-1,5-naphthyridine] | 0.0398 to 0.316 nM | 25.1 to 158 nM |
| Cc1cccc(-c2n[nH]cc2-c2ccc3ncc(CNCCCN4CCN(C(C)C)CC4)cc3n2)n1 [Compound 218, 3-(4-isopropylpiperazin-1-yl)-N-[[6-[3-(6-methyl-2-pyridyl)-1H-pyrazol-4-yl]-1,5-naphthyridin-3-yl]methyl]propan-1-amine] | 0.398 to 3.16 nM | 200 to 1260 nM |
| Cc1cccc(-c2n[nH]cc2-c2ccc3ncc(N4CC5CNC5C4)cc3n2)n1 (stereo not drawn) [Compound 219, 7-(3,6-diazabicyclo[3.2.0]heptan-3-yl)-2-[3-(6-methyl-2-pyridyl)-1H-pyrazol-4-yl]-1,5-naphthyridine] | 0.0398 to 0.316 nM | 25.1 to 158 nM |
| Cc1cccc(-c2n[nH]cc2-c2ccc3ncc(N4C[C@@H]5C[C@H]4CN5)cc3n2)n1 [Compound 220, 7-[(1S,4S)-2,5-diazabicyclo[2.2.1]heptan-2-yl]-2-[3-(6-methyl-2-pyridyl)-1H-pyrazol-4-yl]-1,5-naphthyridine] | 0.398 to 3.16 nM | 25.1 to 158 nM |
| Cc1cccc(-c2n[nH]cc2-c2ccc3ncc(-c4cnn(CCN(C)C)c4)cc3n2)n1 [Compound 221, N,N-dimethyl-2-[4-[6-[3-(6-methyl-2-pyridyl)-1H-pyrazol-4-yl]-1,5-naphthyridin-3-yl]pyrazol-1-yl]ethanamine] | < 0.0316 nM | 25.1 to 158 nM |
| Cc1cccc(-c2[nH]cnc2-c2ccc3ncc(NCCC4CCCNC4)cc3c2)n1 (stereo not drawn) [Compound 222, 6-[5-(6-methyl-2-pyridyl)-1H-imidazol-4-yl]-N-[2-(3-piperidyl)ethyl]quinolin-3-amine] | 0.0398 to 0.316 nM | 25.1 to 158 nM |
| Cc1cccc(-c2n[nH]cc2-c2ccc3ncc(N4CCNC5(CCC5)C4)cc3n2)n1 [Compound 223, 7-(5,8-diazaspiro[3.5]nonan-8-yl)-2-[3-(6-methyl-2-pyridyl)-1H-pyrazol-4-yl]-1,5-naphthyridine] | 0.0398 to 0.316 nM | 25.1 to 158 nM |
| Cc1cccc(-c2[nH]cnc2-c2ccc3ncc(-c4cccc(C(=O)OC5CCNCC5)c4)cc3c2)n1 [Compound 224, 4-piperidyl 3-[6-[5-(6-methyl-2-pyridyl)-1H-imidazol-4-yl]-3-quinolyl]benzoate] | 0.0398 to 0.316 nM | 25.1 to 158 nM |
| Cc1nc(-c2[nH]cnc2-c2ccc3ncc(-c4cnn(CCN)c4)cc3n2)ccc1F [Compound 225, 2-[4-[6-[5-(5-fluoro-6-methyl-2-pyridyl)-1H-imidazol-4-yl]-1,5-naphthyridin-3-yl]pyrazol-1-yl]ethanamine] | 0.0398 to 0.316 nM | 25.1 to 158 nM |
| CC(C)N1CCN(CCNc2cnc3ccc(-c4c[nH]nc4-c4cccc(C(F)F)n4)nc3c2)CC1 [Compound 226, 6-[3-[6-(difluoromethyl)-2-pyridyl]-1H-pyrazol-4-yl]-N-[2-(4-isopropylpiperazin-1-yl)ethyl]-1,5-naphthyridin-3-amine] | 0.0398 to 0.316 nM | 25.1 to 158 nM |
| Cc1cccc(-c2[nH]cnc2-c2ccc3ncc(Nc4cnn(C5CNC5)c4)cc3c2)n1 [Compound 227, N-[1-(azetidin-3-yl)pyrazol-4-yl]-6-[5-(6-methyl-2-pyridyl)-1H-imidazol-4-yl]quinolin-3-amine] | 0.0398 to 0.316 nM | 200 to 1260 nM |
| Cc1cccc(-c2[nH]cnc2-c2ccc3ncc(C4=CCC(NCc5ccccc5)CC4)cc3n2)n1 (stereo not drawn) [Compound 228, N-benzyl-4-[6-[5-(6-methyl-2-pyridyl)-1H-imidazol-4-yl]-1,5-naphthyridin-3-yl]cyclohex-3-en-1-amine] | 0.0398 to 0.316 nM | 200 to 1260 nM |
| CNCCn1ccc(-c2cnc3ccc(-c4c[nH]nc4-c4cccc(C)n4)nc3c2)n1 [Compound 229, N-methyl-2-[3-[6-[3-(6-methyl-2-pyridyl)-1H-pyrazol-4-yl]-1,5-naphthyridin-3-yl]pyrazol-1-yl]ethanamine] | < 0.0316 nM | 25.1 to 158 nM |
| Cc1cccc(-c2[nH]cnc2-c2ccc3ncc(N4CCC(NCCSC5CCOC5=O)C4)cc3c2)n1 (stereo not drawn) [Compound 230, 3-[2-[[1-[6-[5-(6-methyl-2-pyridyl)-1H-imidazol-4-yl]-3-quinolyl]pyrrolidin-3-yl]amino]ethylsulfanyl]tetrahydrofuran-2-one] | < 0.0316 nM | 25.1 to 158 nM |
| Cc1cccc(-c2[nH]cnc2-c2ccc3ncc(-c4cccc(C(=O)OCC5CNC5)c4)cc3c2)n1 [Compound 231, azetidin-3-ylmethyl 3-[6-[5-(6-methyl-2-pyridyl)-1H-imidazol-4-yl]-3-quinolyl]benzoate] | 0.0398 to 0.316 nM | 25.1 to 158 nM |
| Cc1cccc(-c2[nH]cnc2-c2ccc3ncc(C4=CCN(Cc5ccccc5)C4)cc3c2)n1 [Compound 232, 3-(1-benzyl-2,5-dihydropyrrol-3-yl)-6-[5-(6-methyl-2-pyridyl)-1H-imidazol-4-yl]quinoline] | < 0.0316 nM | 25.1 to 158 nM |
